Measured values reported in patent publication US8648099B2 (Hoffmann-La Roche Inc., priority 2011, dated 2014).

What was measured:
[1] = system: ABCA1 protein; assay: Detection of upregulation of ABCA1 protein in cells (ApoA-I binding, high content imaging); format: cell-based; conditions: THP-1 macrophage cells; for % increase of ABCA1 at 3 μM: compound at 3 μM, 24 hrs; for EC50: 24 hrs compound incubation, read-out: EC50 [μM] ABCA1 protein increasing efficacy
Procedure: The ability of compounds of the invention to increase the level of ABCA1 protein is determined in replicate cultures of THP-1 macrophage cells in 96-well microplates. Cells are plated at an initial density of 100,000 cells/well in 100 μl medium and differentiated to adherent macrophages with the addition of PMA (100 nM) for 68 hrs in 10% fetal bovine serum, 3 μl/L of b-mercaptoethanol, RPMI-1640 medium. Then, cells are incubated with RPMI-1640 medium containing 1% FCS, 25 μg/ml acetylated LDL, for 24 hours at 37° C. Following incubation with acetylated LDL, cells are washed twice with 50 μl PBS and incubated with 100 μl of RPMI-1640 medium containing the compound of interest solubilized in DMSO for an additional 24 hrs. The final DMSO concentration in presence of cells is maintained at 0.5%. ApoA-I binding assay using High Content Image Analysis is initiated by replacing with fresh medium, RPMI without Phenol Red, 0.2% BSA containing AlexaFluor®647 labeled ApoA-I for 2 h/37° C./5% CO2. Then, cells are fixed with 4% Formaldehyde in PBS (15 min, RT). Following Nuclei are stained with Hoechst solution (3 μM PBS) and Cytoplasm with Cell Mask Blue (2 μg/ml PBS), 15 min, RT. Finally the stained cells are fixed with a second round of formaldehyde treatment. Fixed stained cells are washed and kept in PBS at 4° C. and can be read immediately until one month after preparation.
The Alexa Fluor 647-labeled Apolipoprotein A-I (20 nM) was prepared as follows: Human recombinant Apolipoprotein A-I (ApoA-I) was exchanged to a buffer of 0.02 M NaHCO3 at pH 8.2 on an NAP desalting column (GE Healthcare) and brought to a concentration to 40 μM (1.13 mg/ml) by adjustment with the same buffer. The ApoA-I was fluorescently labeled by incubation with Alexa Fluor carboxylic acid succimidyl ester (Alexa Fluor 647, Invitrogen A-20006) at a 2:1 molar ratio (Alexa to ApoA-I) for 1 h under shaking at RT. The remaining unconjugated label was removed by buffer exchange to 0.02M NaHCO3 at pH 8.2.
Imaging and data collection were performed on an OPERA confocal microplate imaging reader using a 20× water immersion objective and UV360 or 405 laser to identify the cell nuclei and a 635 laser to identify the fluorescent ApoA-I. Eight fields of view are captured per well. Image capture and analysis was performed with the Acapella software. Background fluorescence detected in control wells without ApoA-I was subtracted.
Using XLfit3 program (ID Business Solutions Ltd. UK), the model 205 for Dose Response One Site is used to calculate the EC50 values. […] More particularly, the compounds of the present invention have EC50 values in a range of 0.1 μM to 3 μm.

[2] = target: T1, human CB2 receptor (Homo sapiens, UniProt P34972); assay: CB2 receptor affinity ([3H]-CP-55,940 displacement, HEK cell membranes); format: binding; conditions: displacement of [3H]-CP-55,940 at 10 μM
T1 construct: expressed in transfected cells; host or cells: human embryonic kidney (HEK) cells, Semliki Forest Virus system, membrane preparations
T1 sequence (P34972 whole entry): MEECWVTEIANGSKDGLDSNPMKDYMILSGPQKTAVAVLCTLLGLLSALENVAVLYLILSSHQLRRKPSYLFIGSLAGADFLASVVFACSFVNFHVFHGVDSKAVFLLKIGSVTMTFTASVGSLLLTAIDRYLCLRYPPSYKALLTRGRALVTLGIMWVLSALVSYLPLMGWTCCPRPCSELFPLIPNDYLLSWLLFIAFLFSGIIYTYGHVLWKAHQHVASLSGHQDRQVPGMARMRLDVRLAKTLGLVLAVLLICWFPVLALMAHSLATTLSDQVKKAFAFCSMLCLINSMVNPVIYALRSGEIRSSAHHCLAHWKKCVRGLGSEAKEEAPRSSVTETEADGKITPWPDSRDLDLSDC
Procedure: (§1) The affinity of the compounds of the invention for cannabinoid CB2 receptors was determined using membrane preparations of human embryonic kidney (HEK) cells in which the human CB2 receptor is transiently transfected using a Semliki Forest Virus system in conjunction with [^3H]-CP-55,940 as radioligand. After incubation of freshly prepared cell membrane preparation with the [^3H]-ligand, with or without addition of compounds of the invention, separation of bound and free ligand was performed by filtration over glass fiber filters. Radioactivity on the filter was measured by scintillation counting.
(§2) The ability of the compounds to displace the radioligand [^3H]-CP-55,940 was measured at a concentration of 10 μM and values provided as [% inhibition @ 10 μM] both for the CB1 and CB2 receptor assay, The lower % inhibition is, the lower the likelihood of side effects based on CB1 or CB2 receptor inhibition is.

[3] = target: T2, human CB1 receptor (Homo sapiens, UniProt P21554); assay: CB1 receptor affinity ([3H]-CP-55,940 displacement, HEK cell membranes); format: binding; conditions: displacement of [3H]-CP-55,940 at 10 μM; read-out: CB1 receptor affinity [% inhibition @ 10 μM]
T2 construct: expressed in transfected cells; host or cells: human embryonic kidney (HEK) cells, Semliki Forest Virus system, membrane preparations
T2 sequence (P21554 whole entry): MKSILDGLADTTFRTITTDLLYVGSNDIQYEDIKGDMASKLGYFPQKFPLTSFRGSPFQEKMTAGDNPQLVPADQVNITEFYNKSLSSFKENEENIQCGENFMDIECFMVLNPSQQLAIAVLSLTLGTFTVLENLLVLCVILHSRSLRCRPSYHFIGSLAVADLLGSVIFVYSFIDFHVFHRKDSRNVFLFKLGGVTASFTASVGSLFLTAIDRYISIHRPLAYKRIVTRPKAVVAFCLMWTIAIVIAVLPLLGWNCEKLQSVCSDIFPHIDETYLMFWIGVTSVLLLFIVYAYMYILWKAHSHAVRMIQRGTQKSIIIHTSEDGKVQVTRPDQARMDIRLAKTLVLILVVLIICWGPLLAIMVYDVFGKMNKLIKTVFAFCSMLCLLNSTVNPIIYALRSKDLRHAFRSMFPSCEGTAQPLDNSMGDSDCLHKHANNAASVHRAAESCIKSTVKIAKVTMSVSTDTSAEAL
Procedure: as §1, with “cannabinoid” for “cannabinoid CB2”, “CB1” for “CB2”, “[3H]-CP-55,940” for “[^3H]-CP-55,940”
as §2

Compound | inhibition at 10 µM [2] | inhibition at 10 µM [3] | % increase of ABCA1 at 3 μM [1] | EC50 [1]
CN(NC(=O)c1cnc(OC2CCC2)c(C2CC2)c1)c1ccc(C#N)cc1 [Example 55, 6-cyclobutoxy-5-cyclopropyl-nicotinic acid N′-(4-cyano-phenyl)-N′-methyl-hydrazide] | 18% | 27% | >45%@ 3 μM | 
N#Cc1ccc(-c2cc(C(=O)NN3CCC(O)CC3)cnc2OCC(F)(F)F)cc1 [Example 36, 5-(4-cyano-phenyl)-N-(4-hydroxy-piperidin-1-yl)-6-(2,2,2-trifluoro-ethoxy)-nicotinamide] | -4% | 10% |  | 1.86 µM
CN(NC(=O)c1cnc(OCC2CC2)c(C2CC2)c1)c1ccc(F)cc1 [Example 41, 5-cyclopropyl-6-cyclopropylmethoxy-nicotinic acid N′-(4-fluoro-phenyl)-N′-methyl-hydrazide] | 38% | 29% |  | 1.1 µM
C[C@@H]1CN(NC(=O)c2cnc(OCC3CC3)c(C3CC3)c2)C[C@H](C)O1 [Example 45, 5-cyclopropyl-6-cyclopropylmethoxy-N-((2R,6S)-2,6-dimethyl-morpholin-4-yl)-nicotinamide] | 17% | 19% |  | 9.4 µM
CN(NC(=O)c1cnc(OCC(F)(F)F)c(C2CCCCC2)c1)c1ccc(Cl)nn1 [Example 22, N′-(6-chloropyridazin-3-yl)-5-cyclohexyl-N′-methyl-6-(2,2,2-trifluoroethoxy)-3-pyridinecarboxylic acid hydrazide] | -9% | 28% |  | 0.98 µM
O=C(NNCc1ccncc1)c1cnc(OCC(F)(F)F)c(C2CC2)c1 [Example 46, 5-cyclopropyl-6-(2,2,2-trifluoro-ethoxy)-nicotinic acid N′-pyridin-4-ylmethyl-hydrazide] | 11% | 11% | >45%@ 3 μM | 
COC[C@@H]1CCCN1NC(=O)c1cnc(OCC(F)(F)F)c(C2CCCC2)c1 [Example 17, (S)-5-cyclopentyl-N-(2-(methoxymethyl)pyrrolidin-1-yl)-6-(2,2,2-trifluoroethoxy)-3-pyridinecarboxamide] | 3% | 33% |  | 0.12 µM
O=C(NN1CCS(=O)(=O)CC1)c1cnc(OCC(F)(F)F)c(C2CC2)c1 [Example 31, 5-cyclopropyl-N-(1,1-dioxo-1λ6-thiomorpholin-4-yl)-6-(2,2,2-trifluoro-ethoxy)-nicotinamide] | -14% | -2% | >45%@ 3 μM | 
CN(NC(=O)c1cnc(OCC2CC2)c(C2CC2)c1)c1ccc(C#N)cc1 [Example 53, 5-cyclopropyl-6-cyclopropylmethoxy-nicotinic acid N′-(4-cyano-phenyl)-N′-methyl-hydrazide] | 48% | 47% | >45%@ 3 μM | 
O=C(NN1CCCC1)c1cnc(OCC(F)(F)F)c(C2CCCCC2)c1 [Example 21, 5-cyclohexyl-N-(pyrrolidin-1-yl)-6-(2,2,2-trifluoroethoxy)-3-pyridinecarboxamide] | -17% | 39% | >45%@ 3 μM | 

Second part, led by results:

inhibition at 10 µM [2] | inhibition at 10 µM [3] | Compound | % increase of ABCA1 at 3 μM [1] | EC50 [1]
-4% | 36% | O=C(NN1CC(CN2CCOCC2)OC1=O)c1cnc(OCC(F)(F)F)c(-c2ccc(Cl)cc2)c1 (stereo not drawn) [Example 7, 5-(4-chlorophenyl)-N-(5-(morpholinomethyl)-2-oxooxazolidin-3-yl)-6-(2,2,2-trifluoroethoxy)-3-pyridinecarboxamide] | >45%@ 3 μM | 
-9% | 46% | CN(CCCO)NC(=O)c1cnc(OCC(F)(F)F)c(-c2ccc(Cl)cc2)c1 [Example 28, 5-(4-chlorophenyl)-N′-(3-hydroxypropyl)-N′-methyl-6-(2,2,2-trifluoroethoxy)-3-pyridinecarboxylic acid hydrazide] | >45%@ 3 μM | 
8% | 43% | O=C(NN1CCOCC1)c1cnc(OCC(F)(F)F)c(-c2ccc(Cl)cc2)c1 [Example 2, 5-(4-chlorophenyl)-N-morpholino-6-(2,2,2-trifluoroethoxy)-3-pyridinecarboxamide] | >45%@ 3 μM | 
7% | 39% | O=C(NN1CCS(=O)(=O)CC1)c1cnc(OCC(F)(F)F)c(-c2ccc(Cl)cc2)c1 [Example 3, 5-(4-chloro-phenyl)-N-(1,1-dioxido-4-thiomorpholinyl)-6-(2,2,2-trifluoro-ethoxy)-3-pyridinecarboxamide] | >45%@ 3 μM | 
16% | 28% | CN(NC(=O)c1cnc(OCC(F)(F)F)c(-c2cccc(F)c2)c1)c1ccccc1 [Example 56, 5-(3-fluoro-phenyl)-6-(2,2,2-trifluoro-ethoxy)-nicotinic acid N′-methyl-N′-phenyl-hydrazide] | >45%@ 3 μM | 
